Assay: Water solubility test

- Solubility in water: 55 mg/mL
SMILES: CC1(C)C(/C=C/C2=C(Oc3ccccc3)C(=C/C=C3/N(CCCCS(=O)(=O)O)c4ccccc4C3(C)C)/CCC2)=[N+](CCCNC(=S)NCCC[N+](C)(C)CCCCCCN=C=NCCC[N+]2(C)CCOCC2)c2ccc3ccccc3c21.I [Compound (2)]
